Experimental findings from patent US11220510B2, “Pyrrole tricyclic compounds as A2A / A2B inhibitors” (Incyte Corporation, priority 2018, dated 2022) are described below.

In assay [1] the target is Adenosine A2A receptor (Tag-lite Adenosine A2A labeled cells) (Homo sapiens (Human), UniProt P29274). In words: A2A Tag-lite HTRF assay (fluorescent ligand displacement). Particulars: Red antagonist fluorescent ligand 12.5 nM, one-site competitive binding model, read-out: A2A_Ki. The text has this:
Example C. A2A Tag-Lite® HTRF Assay
The final concentration of DMSO was 1%.

Assay [2] deals with human adenosine A2B receptor (Homo sapiens (Human), UniProt P29275). In words: Adenosine A2B Receptor Cyclic AMP GS Assay. The note with it: HEK-293 cells expressing human A2B; agonist NECA 12 nM; cAMP accumulation by FRET; read-out: A2B_cAMP_EC50. The format is cell-based. As to the method: Example B. Adenosine A2B Receptor Cyclic AMP GS Assay Stably transfected HEK-293 cells expressing the human adenosine A2B receptor (Perkin Elmer) were maintained in MEM culture medium with 10% FBS and 100 μg/ml Geneticin (Life Technologies). 18 to 24 hours prior to assay, geneticin was removed from culture. The cisbio cAMP-GS Dynamic kit utilizing the FRET (Fluorescence Resonance Energy Transfer) technology was used to measure cAMP accumulation in the cells. Compounds of the present disclosure at an appropriate concentration were mixed with 10000 cells/well in white 96 well half area plates (Perkin Elmer) for 30 min at room temperature gently shaking. Agonist, NECA (R&D Technologies) at 12 nM was added to each well for 60 min at room temperature gently shaking. Detection reagents, d2-labeled cAMP (acceptor) and anti-cAMP cryptate (donor) were added to each well for 60 min at RT gently shaking. Plates were read on Pherastar (BMG Labtech), fluorescence ratio 665/620 was calculated and EC50 determination was performed by fitting the curve of percent of control versus the log of the compound concentration using GraphPad Prism.
Sequence of human adenosine A2B receptor (P29275 whole entry): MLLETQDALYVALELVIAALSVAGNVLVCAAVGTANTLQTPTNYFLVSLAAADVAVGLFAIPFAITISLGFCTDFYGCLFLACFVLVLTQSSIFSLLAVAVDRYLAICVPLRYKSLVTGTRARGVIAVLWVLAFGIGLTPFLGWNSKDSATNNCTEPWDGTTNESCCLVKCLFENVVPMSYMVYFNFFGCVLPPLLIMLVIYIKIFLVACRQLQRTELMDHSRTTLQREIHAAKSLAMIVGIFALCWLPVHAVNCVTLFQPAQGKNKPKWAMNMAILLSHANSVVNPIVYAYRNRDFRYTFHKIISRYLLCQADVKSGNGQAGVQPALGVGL

Sequence of Adenosine A2A receptor (Tag-lite Adenosine A2A labeled cells) (P29274 whole entry): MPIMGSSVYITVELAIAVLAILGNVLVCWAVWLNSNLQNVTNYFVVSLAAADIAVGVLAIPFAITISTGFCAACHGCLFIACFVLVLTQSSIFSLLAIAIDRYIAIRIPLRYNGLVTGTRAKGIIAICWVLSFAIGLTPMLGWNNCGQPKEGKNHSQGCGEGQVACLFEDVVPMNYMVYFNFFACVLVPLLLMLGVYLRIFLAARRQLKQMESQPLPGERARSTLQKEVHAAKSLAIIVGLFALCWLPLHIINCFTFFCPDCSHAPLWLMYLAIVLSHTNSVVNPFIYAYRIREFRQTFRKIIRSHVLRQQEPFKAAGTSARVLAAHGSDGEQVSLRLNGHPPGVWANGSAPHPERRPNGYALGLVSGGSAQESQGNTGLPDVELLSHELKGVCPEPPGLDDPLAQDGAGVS

`CCCCCn1c2cc(-c3cnn(Cc4cnc5cccnc5c4)c3)[nH]c2c(=O)n2c(C(F)(F)F)nnc12` [Example 12, 7-(1-((1,5-Naphthyridin-3-yl)methyl)-1H-pyrazol-4-yl)-9-pentyl-3-(trifluoromethyl)-6,9-dihydro-5H-pyrrolo[3,2-d][1,2,4]triazolo[4,3-a]pyrimidin-5-one]: in assay [1], the Ki is < 0.01 µM. Further, in assay [2], the EC50 is < 0.01 µM.
With `CCCCCn1c2cc(-c3cnn(Cc4cncc(C)c4)c3)[nH]c2c(=O)n2c(C)nnc12` [Example 3, 3-Methyl-7-(1-((5-methylpyridin-3-yl)methyl)-1H-pyrazol-4-yl)-9-pentyl-6,9-dihydro-5H-pyrrolo[3,2-d][1,2,4]triazolo[4,3-a]pyrimidin-5-one], the Ki in assay [1] is < 0.01 µM. In assay [2], the EC50 was < 0.01 µM.
Turning to `CCCCCn1c2cc(-c3cnn(Cc4cncc(F)c4)c3)[nH]c2c(=O)n2c(C)nnc12` [Example 9, 7-(1-((5-Fluoropyridin-3-yl)methyl)-1H-pyrazol-4-yl)-3-methyl-9-pentyl-6,9-dihydro-5H-pyrrolo[3,2-d][1,2,4]triazolo[4,3-a]pyrimidin-5-one], the Ki in assay [1] is < 0.01 µM. For the same compound, the EC50 in assay [2] was 0.01 to 0.1 µM.
On the same counts, the results for `CCCCCn1c2cc(-c3cnn(Cc4cnc5cccnc5c4)c3)[nH]c2c(=O)n2c(C)nnc12` [Example 6, 7-(1-((1,5-Naphthyridin-3-yl)methyl)-1H-pyrazol-4-yl)-3-methyl-9-pentyl-6,9-dihydro-5H-pyrrolo[3,2-d][1,2,4]triazolo[4,3-a]pyrimidin-5-one] are < 0.01 µM and 0.01 to 0.1 µM.
For `CCCCCn1c2cc(-c3cnn(C4CN(c5ncccn5)C4)c3)[nH]c2c(=O)n2c(C)nnc12` [Example 19, 3-Methyl-9-pentyl-7-(1-(1-(pyrimidin-2-yl)azetidin-3-yl)-1H-pyrazol-4-yl)-6,9-dihydro-5H-pyrrolo[3,2-d][1,2,4]triazolo[4,3-a]pyrimidin-5-one] the same measures were < 0.01 µM and 0.01 to 0.1 µM.
On the same counts, the results for `CCCCCn1c2cc(-c3cnn(Cc4cccnc4)c3)[nH]c2c(=O)n2c(C)nnc12` [Example 8, 3-Methyl-9-pentyl-7-(1-(pyridin-3-ylmethyl)-1H-pyrazol-4-yl)-6,9-dihydro-5H-pyrrolo[3,2-d][1,2,4]triazolo[4,3-a]pyrimidin-5-one] are < 0.01 µM and 0.01 to 0.1 µM.
For `CCCCCn1c2cc(-c3cnn(C4CN(c5nccc(N)n5)C4)c3)[nH]c2c(=O)n2c(C)nnc12` [Example 21, 7-(1-(1-(4-Aminopyrimidin-2-yl)azetidin-3-yl)-1H-pyrazol-4-yl)-3-methyl-9-pentyl-6,9-dihydro-5H-pyrrolo[3,2-d][1,2,4]triazolo[4,3-a]pyrimidin-5-one], the Ki in assay [1] was < 0.01 µM. For the same compound, the EC50 in assay [2] fell in the range of 0.01 to 0.1 µM.
For the compound `CCCCCn1c2cc(-c3cnn(C4CN(c5nccc(C#N)n5)C4)c3)[nH]c2c(=O)n2c(C)nnc12` [Example 20, 2-(3-(4-(3-Methyl-5-oxo-9-pentyl-6,9-dihydro-5H-pyrrolo[3,2-d][1,2,4]triazolo[4,3-a]pyrimidin-7-yl)-1H-pyrazol-1-yl)azetidin-1-yl)pyrimidine-4-carbonitrile], the Ki in assay [1] is < 0.01 µM. Further, the EC50 in assay [2] lay within 0.01 to 0.1 µM.
